This passage reports MIC results from ChEMBL document CHEMBL5316337, “Critical Role of Position 10 Residue in the Polymyxin Antimicrobial Activity” (J Med Chem, 2023).

What all share (format): functional
For experiment [1], the system named is Klebsiella pneumoniae. As to the kind of experiment: Antibacterial activity against Carbapenem-resistant Klebsiella pneumoniae FADD1-KP065 clinical isolates assessed as reduction in bacterial growth by broth microdilution method. For orientation: Dilution methods test growth across graded concentrations, often in twofold steps.
Experiment [2] relates to Enterobacter cloacae. The experiment is described as follows: Antibacterial activity against polymyxin-susceptible Enterobacter cloacae FADD1-EC003 clinical isolates assessed as reduction in bacterial growth by broth microdilution method.
Experiment [3] deals with Pseudomonas aeruginosa. The experiment is described as follows: Antibacterial activity against Carbapenem-resistant Pseudomonas aeruginosa FADD1-PA022 clinical isolates assessed as reduction in bacterial growth by broth microdilution method.
Experiment [4] deals with Klebsiella pneumoniae. As to the kind of experiment: Antibacterial activity against Carbapenem-resistant Klebsiella pneumoniae FADD1-KP032 clinical isolates assessed as reduction in bacterial growth by broth microdilution method.
For experiment [5], the system named is Pseudomonas aeruginosa. The experiment is described as follows: Antibacterial activity against polymyxin-susceptible Pseudomonas aeruginosa FADD1-PA038 clinical isolates assessed as reduction in bacterial growth by broth microdilution method.
Experiment [6] has as its system Acinetobacter baumannii. As to the kind of experiment: Antibacterial activity against Carbapenem-resistant Acinetobacter baumannii FADD1-AB030 clinical isolates assessed as reduction in bacterial growth by broth microdilution method.
Experiment [7] deals with Enterobacter cloacae. The experiment is described as follows: Antibacterial activity against polymyxin-susceptible Enterobacter cloacae FADD1-EC001 clinical isolates assessed as reduction in bacterial growth by broth microdilution method.
Experiment [8] concerns Klebsiella pneumoniae. As to the kind of experiment: Antibacterial activity against Carbapenem-resistant Klebsiella pneumoniae BM1 clinical isolates assessed as reduction in bacterial growth by broth microdilution method.
Experiment [9] relates to Acinetobacter baumannii. The experiment is described as follows: Antibacterial activity against Carbapenem-resistant Acinetobacter baumannii FADD1-AB034 clinical isolates assessed as reduction in bacterial growth by broth microdilution method.
In experiment [10] the test system is Pseudomonas aeruginosa. As to the kind of experiment: Antibacterial activity against Carbapenem-resistant Pseudomonas aeruginosa FADD1-PA001 clinical isolates assessed as reduction in bacterial growth by broth microdilution method.
Experiment [11] has as its system Acinetobacter baumannii. As to the kind of experiment: Antibacterial activity against polymyxin-susceptible Acinetobacter baumannii ATCC 17978 clinical isolates assessed as reduction in bacterial growth by broth microdilution method.
For experiment [12], the system named is Enterobacter cloacae. As to the kind of experiment: Antibacterial activity against polymyxin-susceptible Enterobacter cloacae FADD1-EC006 clinical isolates assessed as reduction in bacterial growth by broth microdilution method.
Experiment [13] has as its system Klebsiella pneumoniae. As to the kind of experiment: Antibacterial activity against polymyxin-susceptible Klebsiella pneumoniae ATCC 700721 clinical isolates assessed as reduction in bacterial growth by broth microdilution method.
For experiment [14], the system named is Klebsiella pneumoniae. The experiment is described as follows: Antibacterial activity against Carbapenem-resistant Klebsiella pneumoniae FADD1-KP022 clinical isolates assessed as reduction in bacterial growth by broth microdilution method.
Experiment [15] has as its system Pseudomonas aeruginosa. As to the kind of experiment: Antibacterial activity against polymyxin-susceptible Pseudomonas aeruginosa ATCC 27853 clinical isolates assessed as reduction in bacterial growth by broth microdilution method.
The subject of experiment [16] is Acinetobacter baumannii. The experiment is described as follows: Antibacterial activity against polymyxin-susceptible Acinetobacter baumannii ATCC 19606 clinical isolates assessed as reduction in bacterial growth by broth microdilution method.
In experiment [17] the test system is Pseudomonas aeruginosa. As to the kind of experiment: Antibacterial activity against polymyxin-susceptible Pseudomonas aeruginosa FADD1-PA025 clinical isolates assessed as reduction in bacterial growth by broth microdilution method.

Converted amounts (≈) assume the structure as drawn.

Turning to `CC[C@H](C)CCCCC(=O)N[C@@H](CCN)C(=O)N[C@H](C(=O)N[C@@H](CCN)C(=O)N[C@H]1CCNC(=O)[C@H](CC(N)=O)NC(=O)[C@H](CCN)NC(=O)[C@H](CCN)NC(=O)[C@H](CC(C)C)NC(=O)[C@@H](Cc2ccccc2)NC(=O)[C@H](CCN)NC1=O)[C@@H](C)O`, the MIC (usually the smallest concentration in the dilution series that meets the test's criterion for growth inhibition) in the experiment on Klebsiella pneumoniae [1] was 8 µg/mL (≈ 6.58 µM); in the experiment with Enterobacter cloacae [2] it was 32 µg/mL (≈ 26.3 µM); in the experiment on Pseudomonas aeruginosa [3], 1 µg/mL (≈ 0.822 µM); with Klebsiella pneumoniae [4], > 32 µg/mL; with Pseudomonas aeruginosa [5] it was > 32 µg/mL; with Acinetobacter baumannii [6], > 32 µg/mL. For the same compound, the MIC with Enterobacter cloacae [7] was > 32 µg/mL; in the experiment on Klebsiella pneumoniae [8] it was > 32 µg/mL; in the experiment with Acinetobacter baumannii [9] it was > 32 µg/mL; in the experiment on Pseudomonas aeruginosa [10], > 32 µg/mL; in the experiment on Acinetobacter baumannii [11] it was 16 µg/mL (≈ 13.2 µM); in the experiment with Enterobacter cloacae [12], > 32 µg/mL. The MIC in the experiment on Klebsiella pneumoniae [13] was > 32 µg/mL; in the experiment with Klebsiella pneumoniae [14] it was 8 µg/mL (≈ 6.58 µM); in the experiment with Pseudomonas aeruginosa [15], 32 µg/mL (≈ 26.3 µM); in the experiment with Acinetobacter baumannii [16], > 32 µg/mL; with Pseudomonas aeruginosa [17] it was 4 µg/mL (≈ 3.29 µM).

For `CC[C@H](C)CCCCC(=O)N[C@@H](CCN)C(=O)N[C@H](C(=O)N[C@@H](CCN)C(=O)N[C@H]1CCNC(=O)[C@H](C(C)N=[N+]=[N-])NC(=O)[C@H](CCN)NC(=O)[C@H](CCN)NC(=O)[C@H](CC(C)C)NC(=O)[C@@H](Cc2ccccc2)NC(=O)[C@H](CCN)NC1=O)[C@@H](C)O` (stereo partly drawn), the MIC in the experiment with Klebsiella pneumoniae [1] turned out to be 1 µg/mL (≈ 0.814 µM); in the experiment with Enterobacter cloacae [2], 4 µg/mL (≈ 3.26 µM); in the experiment on Pseudomonas aeruginosa [3], 1 µg/mL (≈ 0.814 µM); in the experiment on Klebsiella pneumoniae [4] it was 2 µg/mL (≈ 1.63 µM); with Pseudomonas aeruginosa [5], 4 µg/mL (≈ 3.26 µM); in the experiment on Acinetobacter baumannii [6], 0.5 µg/mL (≈ 0.407 µM). The MIC in the experiment with Enterobacter cloacae [7] was 8 µg/mL (≈ 6.51 µM); with Klebsiella pneumoniae [8], 2 µg/mL (≈ 1.63 µM); in the experiment on Acinetobacter baumannii [9], 2 µg/mL (≈ 1.63 µM); in the experiment on Pseudomonas aeruginosa [10] it was 1 µg/mL (≈ 0.814 µM); in the experiment with Acinetobacter baumannii [11] it was 2 µg/mL (≈ 1.63 µM); in the experiment with Enterobacter cloacae [12], 32 µg/mL (≈ 26 µM). For the same compound, the MIC came to 4 µg/mL (≈ 3.26 µM) in the experiment on Klebsiella pneumoniae [13]; 1 µg/mL (≈ 0.814 µM) in the experiment on Klebsiella pneumoniae [14]; 1 µg/mL (≈ 0.814 µM) in the experiment on Pseudomonas aeruginosa [15]; 2 µg/mL (≈ 1.63 µM) with Acinetobacter baumannii [16]; 1 µg/mL (≈ 0.814 µM) in the experiment on Pseudomonas aeruginosa [17].

Regarding `CC[C@H](C)CCCCC(=O)N[C@@H](CCN)C(=O)N[C@H](C(=O)N[C@@H](CCN)C(=O)N[C@H]1CCNC(=O)[C@H](COC)NC(=O)[C@H](CCN)NC(=O)[C@H](CCN)NC(=O)[C@H](CC(C)C)NC(=O)[C@@H](Cc2ccccc2)NC(=O)[C@H](CCN)NC1=O)[C@@H](C)O`, the MIC in the experiment on Klebsiella pneumoniae [1] came to 1 µg/mL (≈ 0.831 µM); in the experiment on Enterobacter cloacae [2], 8 µg/mL (≈ 6.65 µM); in the experiment with Pseudomonas aeruginosa [3], 1 µg/mL (≈ 0.831 µM); in the experiment on Klebsiella pneumoniae [4] it was 2 µg/mL (≈ 1.66 µM); in the experiment on Pseudomonas aeruginosa [5] it was 8 µg/mL (≈ 6.65 µM); in the experiment on Acinetobacter baumannii [6] it was 1 µg/mL (≈ 0.831 µM). In addition, the MIC in the experiment on Enterobacter cloacae [7] is 8 µg/mL (≈ 6.65 µM); with Klebsiella pneumoniae [8], 1 µg/mL (≈ 0.831 µM); in the experiment with Acinetobacter baumannii [9] it was 4 µg/mL (≈ 3.32 µM); with Pseudomonas aeruginosa [10] it was 2 µg/mL (≈ 1.66 µM); in the experiment on Acinetobacter baumannii [11] it was 2 µg/mL (≈ 1.66 µM); in the experiment on Enterobacter cloacae [12], 32 µg/mL (≈ 26.6 µM). The MIC in the experiment with Klebsiella pneumoniae [13] was determined as 4 µg/mL (≈ 3.32 µM); in the experiment with Klebsiella pneumoniae [14], 0.25 µg/mL (≈ 0.208 µM); in the experiment with Pseudomonas aeruginosa [15], 0.5 µg/mL (≈ 0.415 µM); in the experiment with Acinetobacter baumannii [16], 8 µg/mL (≈ 6.65 µM); in the experiment with Pseudomonas aeruginosa [17] it was 2 µg/mL (≈ 1.66 µM).

On to `CC[C@H](C)CCCCC(=O)N[C@@H](CCN)C(=O)N[C@H](C(=O)N[C@@H](CCN)C(=O)N[C@H]1CCNC(=O)[C@@H]([C@H](C)O)NC(=O)[C@H](CCN)NC(=O)[C@H](CCN)NC(=O)[C@H](CC(C)C)NC(=O)[C@@H](Cc2ccccc2)NC(=O)[C@H](CCN)NC1=O)[C@@H](C)O`, for which the MIC was > 32 µg/mL with Klebsiella pneumoniae [1]; > 32 µg/mL in the experiment on Enterobacter cloacae [2]; 2 µg/mL (≈ 1.66 µM) in the experiment on Pseudomonas aeruginosa [3]; > 32 µg/mL with Klebsiella pneumoniae [4]; > 32 µg/mL in the experiment on Pseudomonas aeruginosa [5]; > 32 µg/mL in the experiment with Acinetobacter baumannii [6]. The MIC in the experiment with Enterobacter cloacae [7] is > 32 µg/mL; with Klebsiella pneumoniae [8] it was > 32 µg/mL; in the experiment with Acinetobacter baumannii [9], > 32 µg/mL; in the experiment on Pseudomonas aeruginosa [10], > 32 µg/mL; with Acinetobacter baumannii [11] it was 4 µg/mL (≈ 3.32 µM); with Enterobacter cloacae [12] it was > 32 µg/mL. The MIC is > 32 µg/mL in the experiment with Klebsiella pneumoniae [13]; > 32 µg/mL in the experiment with Klebsiella pneumoniae [14]; 32 µg/mL (≈ 26.6 µM) in the experiment on Pseudomonas aeruginosa [15]; > 32 µg/mL in the experiment with Acinetobacter baumannii [16]; 16 µg/mL (≈ 13.3 µM) in the experiment with Pseudomonas aeruginosa [17].
